# Measurements as given in ChEMBL document CHEMBL3797052 (Eur J Med Chem, 2016).
# Legend:
# SK-MEL-2 [1] = experiment: Antiproliferative activity against human SK-MEL-2 cells assessed as growth inhibition after 48 hrs by sulforhodamine B assay; format: functional; details: SK-MEL-2, 48 h; for CC50: read-out: LC50 (the source's name)
# MDA-MB-435 = experiment: Antiproliferative activity against human MDA-MB-435 cells assessed as growth inhibition after 48 hrs by sulforhodamine B assay; format: functional; details: MDA-MB-435, 48 h; for CC50: read-out: LC50 (the source's name)
# [2] = Antiproliferative activity against human RPMI8226 cells assessed as growth inhibition after 48 hrs by sulforhodamine B assay; format: functional; details: RPMI-8226, 48 h
# MDA-MB-231 [3] = experiment: Antiproliferative activity against human MDA-MB-231 cells assessed as growth inhibition after 48 hrs by sulforhodamine B assay; format: functional; details: MDA-MB-231, 48 h; for CC50: read-out: LC50 (the source's name)
# MDA-MB-468 [4] = experiment: Antiproliferative activity against human MDA-MB-468 cells assessed as growth inhibition after 48 hrs by sulforhodamine B assay; format: functional; details: MDA-MB-468, 48 h; for CC50: read-out: LC50 (the source's name)
# CYP2D6 = CYP2D6 (Homo sapiens, UniProt P10635); experiment: Inhibition of recombinant human CYP2D6 assessed as remaining enzyme activity using CYP2D6 blue as substrate at 10 uM after 5 mins in presence of NADP by fluorescence plate reader analysis; format: ADME; details: recombinant human CYP2D6, probe CYP2D6 blue, read-out: Activity
# CYP2D6, sequence (P10635 whole entry): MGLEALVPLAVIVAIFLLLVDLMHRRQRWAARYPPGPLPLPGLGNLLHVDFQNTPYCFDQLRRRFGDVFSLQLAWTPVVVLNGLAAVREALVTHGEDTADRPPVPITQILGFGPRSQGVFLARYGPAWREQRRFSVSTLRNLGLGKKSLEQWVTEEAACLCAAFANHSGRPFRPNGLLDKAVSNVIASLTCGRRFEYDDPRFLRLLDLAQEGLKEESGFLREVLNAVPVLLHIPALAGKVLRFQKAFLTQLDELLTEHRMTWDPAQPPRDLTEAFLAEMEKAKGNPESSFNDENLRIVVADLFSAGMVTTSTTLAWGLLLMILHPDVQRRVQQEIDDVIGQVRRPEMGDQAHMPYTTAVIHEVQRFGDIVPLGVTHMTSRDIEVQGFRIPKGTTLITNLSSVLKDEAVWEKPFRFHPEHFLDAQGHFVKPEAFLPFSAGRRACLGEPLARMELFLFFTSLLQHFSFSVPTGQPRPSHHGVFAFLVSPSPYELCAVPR
# SR = experiment: Antiproliferative activity against human SR cells assessed as cell growth at 10^-7 M after 48 hrs by sulforhodamine B assay; format: functional; details: read-out: Activity
# NCI-H322M [5] = experiment: Antiproliferative activity against human NCI-H322M cells assessed as cell growth at 10^-7 M after 48 hrs by sulforhodamine B assay; format: functional; details: read-out: Activity
# [6] = Antiproliferative activity against human HCT15 cells assessed as cell growth at 10^-7 M after 48 hrs by sulforhodamine B assay; format: functional; details: HCT-15, 48 h, read-out: Activity
# [7] = Antiproliferative activity against human SNB19 cells assessed as cell growth at 10^-7 M after 48 hrs by sulforhodamine B assay; format: functional; details: SNB-19, 48 h, read-out: Activity
# MDA-MB-468 [8] = experiment: Antiproliferative activity against human MDA-MB-468 cells assessed as cell growth at 10^-4 M after 48 hrs by sulforhodamine B assay; format: functional; details: MDA-MB-468, 48 h, read-out: Activity
# [9] = Antiproliferative activity against human UACC62 cells assessed as cell growth at 10^-7 M after 48 hrs by sulforhodamine B assay; format: functional; details: UACC-62, 48 h, read-out: Activity
# [10] = Antiproliferative activity against human OVCAR3 cells assessed as cell growth at 10^-7 M after 48 hrs by sulforhodamine B assay; format: functional; details: OVCAR-3, 48 h, read-out: Activity
# A498 [11] = experiment: Antiproliferative activity against human A498 cells assessed as cell growth at 10^-7 M after 48 hrs by sulforhodamine B assay; format: functional; details: A498, 48 h, read-out: Activity
# [12] = Antiproliferative activity against human Caki1 cells assessed as cell growth at 10^-7 M after 48 hrs by sulforhodamine B assay; format: functional; details: CAKI-1, 48 h, read-out: Activity
# [13] = molecular target: RAF proto-oncogene serine/threonine-protein kinase (Homo sapiens, UniProt P04049); experiment: Inhibition of human C-RAF measured after 40 mins by scintillation counting
# RAF proto-oncogene serine/threonine-protein kinase, sequence (P04049 whole entry): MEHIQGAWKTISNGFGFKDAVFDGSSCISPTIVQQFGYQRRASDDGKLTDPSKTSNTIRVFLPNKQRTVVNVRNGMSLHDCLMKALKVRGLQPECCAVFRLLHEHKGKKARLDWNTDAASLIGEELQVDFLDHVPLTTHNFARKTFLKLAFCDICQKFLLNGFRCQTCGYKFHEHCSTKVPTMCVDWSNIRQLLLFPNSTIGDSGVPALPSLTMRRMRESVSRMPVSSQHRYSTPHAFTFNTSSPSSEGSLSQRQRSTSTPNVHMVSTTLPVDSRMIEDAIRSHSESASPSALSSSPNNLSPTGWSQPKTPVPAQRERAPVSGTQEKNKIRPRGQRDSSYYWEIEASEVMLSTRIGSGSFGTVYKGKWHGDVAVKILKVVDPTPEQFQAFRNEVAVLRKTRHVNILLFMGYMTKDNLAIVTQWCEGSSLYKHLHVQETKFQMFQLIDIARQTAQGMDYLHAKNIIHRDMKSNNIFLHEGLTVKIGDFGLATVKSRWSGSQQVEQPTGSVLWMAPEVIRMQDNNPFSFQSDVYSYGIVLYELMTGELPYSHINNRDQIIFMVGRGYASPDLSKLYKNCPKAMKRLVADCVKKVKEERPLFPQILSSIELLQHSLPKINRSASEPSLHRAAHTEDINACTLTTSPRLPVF
# CYP3A4 = CYP3A4 (Homo sapiens, UniProt P08684); experiment: Inhibition of recombinant human CYP3A4 assessed as remaining enzyme activity using CYP3A4 blue as substrate at 10 uM after 5 mins in presence of NADP by fluorescence plate reader analysis; format: ADME; details: recombinant human CYP3A4, probe CYP3A4 blue, read-out: Activity
# CYP3A4, sequence (P08684 whole entry): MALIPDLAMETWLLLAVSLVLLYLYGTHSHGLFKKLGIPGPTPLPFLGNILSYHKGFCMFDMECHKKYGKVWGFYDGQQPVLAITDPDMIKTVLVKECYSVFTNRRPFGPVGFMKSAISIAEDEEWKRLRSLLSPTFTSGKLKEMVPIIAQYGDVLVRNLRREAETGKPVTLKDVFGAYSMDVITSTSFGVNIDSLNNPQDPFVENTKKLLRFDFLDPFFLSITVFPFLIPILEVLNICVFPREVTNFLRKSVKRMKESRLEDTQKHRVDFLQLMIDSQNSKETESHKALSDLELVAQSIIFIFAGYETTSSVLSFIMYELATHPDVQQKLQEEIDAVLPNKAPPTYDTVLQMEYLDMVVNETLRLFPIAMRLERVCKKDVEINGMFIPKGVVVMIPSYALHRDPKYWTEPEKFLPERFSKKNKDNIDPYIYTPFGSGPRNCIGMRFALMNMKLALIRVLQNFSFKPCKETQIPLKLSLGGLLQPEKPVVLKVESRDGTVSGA
# [14] = Antiproliferative activity against human HCT116 cells assessed as cell growth at 10^-8 M after 48 hrs by sulforhodamine B assay; format: functional; details: HCT-116, 48 h, read-out: Activity
# KM12 = experiment: Antiproliferative activity against human KM12 cells assessed as cell growth at 10^-8 M after 48 hrs by sulforhodamine B assay; format: functional; details: KM12, 48 h, read-out: Activity
# CCRF-CEM = experiment: Antiproliferative activity against human CCRF-CEM cells assessed as cell growth at 10^-6 M after 48 hrs by sulforhodamine B assay; format: functional; details: read-out: Activity
# NCI-H23 = experiment: Antiproliferative activity against human NCI-H23 cells assessed as cell growth at 10^-6 M after 48 hrs by sulforhodamine B assay; format: functional; details: NCI-H23, 48 h, read-out: Activity
# [15] = Antiproliferative activity against human SNB19 cells assessed as cell growth at 10^-6 M after 48 hrs by sulforhodamine B assay; format: functional; details: SNB-19, 48 h, read-out: Activity
# [16] = Antiproliferative activity against human SNB75 cells assessed as cell growth at 10^-6 M after 48 hrs by sulforhodamine B assay; format: functional; details: SNB-75, 48 h, read-out: Activity
# K562 = experiment: Antiproliferative activity against human K562 cells assessed as cell growth at 10^-4 M after 48 hrs by sulforhodamine B assay; format: functional; details: K562, 48 h, read-out: Activity
# [17] = Antiproliferative activity against human MOLT4 cells assessed as cell growth at 10^-4 M after 48 hrs by sulforhodamine B assay; format: functional; details: MOLT-4, 48 h, read-out: Activity
# NCI-H322M [18] = experiment: Antiproliferative activity against human NCI-H322M cells assessed as cell growth at 10^-4 M after 48 hrs by sulforhodamine B assay; format: functional; details: read-out: Activity
# [19] = Antiproliferative activity against human SNB75 cells assessed as cell growth at 10^-4 M after 48 hrs by sulforhodamine B assay; format: functional; details: SNB-75, 48 h, read-out: Activity
# A498 [20] = experiment: Antiproliferative activity against human A498 cells assessed as cell growth at 10^-8 M after 48 hrs by sulforhodamine B assay; format: functional; details: A498, 48 h, read-out: Activity
# MDA-MB-231 [21] = experiment: Antiproliferative activity against human MDA-MB-231 cells assessed as cell growth at 10^-8 M after 48 hrs by sulforhodamine B assay; format: functional; details: MDA-MB-231, 48 h, read-out: Activity
# SK-MEL-2 [22] = experiment: Antiproliferative activity against human SK-MEL-2 cells assessed as cell growth at 10^-6 M after 48 hrs by sulforhodamine B assay; format: functional; details: SK-MEL-2, 48 h, read-out: Activity
# [23] = Antiproliferative activity against human OVCAR5 cells assessed as cell growth at 10^-6 M after 48 hrs by sulforhodamine B assay; format: functional; details: OVCAR-5, 48 h, read-out: Activity
# A498 [24] = experiment: Antiproliferative activity against human A498 cells assessed as cell growth at 10^-6 M after 48 hrs by sulforhodamine B assay; format: functional; details: A498, 48 h, read-out: Activity
# [25] = Antiproliferative activity against human Hs 578T cells assessed as cell growth at 10^-6 M after 48 hrs by sulforhodamine B assay; format: functional; details: read-out: Activity
# [26] = Antiproliferative activity against human NCI-ADR-RES cells assessed as cell growth at 10^-4 M after 48 hrs by sulforhodamine B assay; format: functional; details: read-out: Activity
# 786-0 = experiment: Antiproliferative activity against human 786-0 cells assessed as cell growth at […] after 48 hrs by sulforhodamine B assay; format: functional; details: 786-0, 48 h, read-out: Activity
compound,measurement,setting,value
CNC(=O)c1cc(Oc2ccc(NC(=O)Nc3ccc(Cl)c(C(F)(F)F)c3)cc2)ccn1 [SORAFENIB],GI50,SK-MEL-2 [1],2 µM
same,TGI,SK-MEL-2 [1],3.16 µM
same,CC50,SK-MEL-2 [1],6.31 µM
same,TGI,MDA-MB-435,3.98 µM
same,CC50,MDA-MB-435,10 µM
same,TGI,[2],6.31 µM
same,GI50,MDA-MB-231 [3],1.26 µM
same,TGI,MDA-MB-231 [3],3.98 µM
same,CC50,MDA-MB-231 [3],20 µM
same,GI50,MDA-MB-468 [4],2 µM
same,TGI,MDA-MB-468 [4],7.94 µM
same,CC50,MDA-MB-468 [4],39.8 µM
CNC(=O)c1cc(Oc2ccc3nc(NC(=O)c4cc(C(F)(F)F)cc(C(F)(F)F)c4)sc3c2)ccn1,"activity at 5 min, 10 µM",CYP2D6,82.2%
same,growth at 0.1 µM,SR,89%
same,growth at 0.1 µM,NCI-H322M [5],93%
same,growth at 0.1 µM,[6],96%
same,growth at 0.1 µM,[7],103%
same,growth at 100 µM,MDA-MB-468 [8],-30%
same,GI50,SK-MEL-2 [1],2.32 µM
same,TGI,SK-MEL-2 [1],6.7 µM
same,CC50,SK-MEL-2 [1],81.6 µM
same,GI50,MDA-MB-435,3.28 µM
same,TGI,MDA-MB-435,20.4 µM
same,CC50,MDA-MB-435,> 100 µM
same,growth at 0.1 µM,[9],86%
same,growth at 0.1 µM,[10],102%
same,growth at 0.1 µM,A498 [11],67%
same,growth at 0.1 µM,[12],91%
same,GI50,[2],2.42 µM
same,LC50,[2],> 100 µM
same,TGI,[2],> 100 µM
same,GI50,MDA-MB-231 [3],2.88 µM
same,TGI,MDA-MB-231 [3],6.63 µM
same,CC50,MDA-MB-231 [3],39.8 µM
same,GI50,MDA-MB-468 [4],3.18 µM
same,TGI,MDA-MB-468 [4],14.2 µM
same,CC50,MDA-MB-468 [4],> 100 µM
same,IC50,[13],0.695 µM
same,"activity at 5 min, 10 µM",CYP3A4,72.9%
same,growth at 0.01 µM,[14],111%
same,growth at 0.01 µM,KM12,101%
same,growth at 1 µM,CCRF-CEM,93%
same,growth at 1 µM,NCI-H23,89%
same,growth at 1 µM,[15],96%
same,growth at 1 µM,[16],89%
same,growth at 100 µM,K562,4%
same,growth at 100 µM,[17],-7%
same,growth at 100 µM,NCI-H322M [18],-42%
same,growth at 100 µM,[19],-51%
same,growth at 0.01 µM,A498 [20],69%
same,growth at 0.01 µM,MDA-MB-231 [21],108%
same,growth at 1 µM,SK-MEL-2 [22],90%
same,growth at 1 µM,[23],80%
same,growth at 1 µM,A498 [24],66%
same,growth at 1 µM,[25],94%
same,growth at 100 µM,[26],-38%
same,growth at 100 µM,786-0,-71%
